Experimental data as given in patent publication US12365698B2, “Application of boron dipyrromethene derivatives in anti-tumor and anti-bacterial therapy” (biolitec Unternehmensbeteiligungs III AG, priority 2019, dated 2025).

Tests used:
[1] = system: HT29 tumor cell line and other cell lines; assay: Cell tests: dark toxicity and phototoxicity, XTT cell viability assay; format: cell-based, human, mouse; conditions: cell tests of example 3; 2 or 10 μM
Method: The photosensitizing activity was determined in the following cell lines: • HT29 (human colon adenocarcinoma cell line) • L929 (mouse fibroblast cell line) • A431 (human epidermoid carcinoma cell line) • A253 (submaxillary salivary gland, epidermoid cell line) • CAL-27 (human tongue squamous cell carcinoma cell line) • J774A.1 (Mouse BALB/c monocyte macrophage).
The cell lines were grown in DMEM (c.c.pro GmbH) supplemented with 10% heat-inactivated fetal calf serum (FCS, c.c.pro GmbH), 1% penicillin (10000 IU) and streptomycin (10000 μg/ml, c.c.pro GmbH). Cells were kept as a monolayer culture in a humidified incubator (5% CO2 in air at 37° C.).
A photosensitizer stock solution (2 mM) was performed in DMSO and was kept in the dark at 4° C. Further dilution was performed in DMEM medium without phenol red supplemented with 10% FCS to reach a final photosensitizer concentration of 2 or 10 μM, respectively.
After seeding the cells in micro plates, the cells were incubated with fresh medium (DMEM without phenol red) containing 10% FCS with 2 or 10 μM of the photosensitizer for 24 h before light exposure. […]
The cell viability was assessed by the XTT assay. […]
The absorbance of the samples was measured with a microplate reader (infinite 200, Tecan Group Ltd.) at a wavelength of 490 nm.

[2] = system: Staphylococcus aureus DSM 11729; assay: Antibacterial testing (CFU/ml count, with and without white light); format: cell-based; conditions: for antibacterial activity in the presence of complex media (serum addition): PBS supplemented with 10% horse blood serum; for antibacterial activity in the presence of complex media (serum addition) / antibacterial activity of compounds which carry just one bromine atom: bacterium not given; for antibacterial activity against S. aureus in the absence of light: highest tested concentration of 100 μmol
Method: The organisms studied were Staphylococcus aureus DSM 11729, Gram-positive and Pseudomonas aeruginosa DSM 1117, Gram-negative.
Cultures cells are suspended in sterile phosphate-buffered saline (PBS) or sterile PBS supplemented with 10% sterile horse blood serum. The bacterial suspensions are placed into sterile black well plates with clear bottoms. Concentrations of photosensitizer used in the study were as follows: 100 μM, 10 μM and 1 μM.
After an incubation time period of 30 minutes, the samples are exposed to white light, with a power density and irradiation time resulting in an energy fluency of about 100 J/cm^2. Control plates contained no photosensitizer and are not exposed to laser light. The control samples for dark toxicity are only exposed to photosensitizer without any illumination.
After irradiation, the samples are removed and suspended again in the culture media. The numbers of colony-forming units (CFU/ml) are enumerated after an adequate incubation time period.

Row | Molecule | toxicity in cells [1] | specific activity against bacteria ([2]; compared with toxicity in cells) | antibacterial activity in the presence of complex media (serum addition) [2] | antibacterial activity against S. aureus in the absence of light [2] | antibacterial activity of compounds which carry just one bromine atom [2]
1 | 1,3,5,7-Tetramethyl-2,6-dibromo-8(4-propargylamino-3-nitrophenyl)-boron dipyrromethene [Example 4.5] | low toxicity | specifically active against bacteria |  |  | 
2 | 1,3,5,7-Tetramethyl-2,6-dibromo-8-(4-N-hydroxy-ethylamino-3-nitrophenyl)-boron dipyrromethene [Example 4.2] |  |  | antibacterial activity is also observed | high antibacterial activity | 
3 | 2-Bromo-8-(4-butyloxy-2,3,5,6-tetrafluorophenyl)-boron dipyrromethene [Example 4.11] |  |  |  |  | strong antibacterial activity
4 | C#CCNc1ccc(C2=C3C=CC=[N+]3[B-](F)(F)n3cc(Br)cc32)cc1[N+](=O)[O-] [Example 4.1, 2-Bromo-8-(4-N-propargylamino-3-nitrophenyl)-boron dipyrromethene] |  |  | antibacterial activity is also observed | high antibacterial activity | strong antibacterial activity
